Results reported in US12637478B2, “Compound, preparation method thereof, and antibiotic composition comprising same” (priority 2020, dated 2026).
≈ marks a conversion by molar mass, not a printed value.

Experiments:
E. faecalis = test: MIC by broth microdilution (aerobic pathogens), test strain 7; assay type: cell-based; conditions: Enterococcus faecalis; test strain 7, E. faecalis; read-out: MIC
How it was run: (§1)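 Read-out is the concentration achieving 90% growth inhibition relative to non-treated control, determined by broth microdilution under CLSI M7-A5 conditions.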

S. epidermis^MR = test: MIC by broth microdilution (aerobic pathogens), test strain 6; assay type: cell-based, Methicillin resistant Staphylococcus epidermidis; conditions: Staphylococcus epidermidis; test strain 6, S. epidermis^MR (methicillin resistant); read-out: MIC
How it was run: as §1

E. faecium^LinR = test: MIC by broth microdilution (aerobic pathogens), test strain 12; assay type: cell-based, Linezolid resistant Enterococcus faecium; conditions: Enterococcus faecium; test strain 12, E. faecium^LinR (linezolid resistant); read-out: MIC
How it was run: as §1

M. avium = test: MIC by resazurin (REMA) assay against Mycobacterium, test strain 21; assay type: cell-based; conditions: test strain 21, M. avium, resazurin, read-out: MIC
Procedure: (§2) In order to test the antibacterial activity, the medium of Mycobacterium cultured to late log phase was diluted so as to be 4.0×10^5 cells/well in Middlebrook 7H10 agar medium (Difco) supplemented with 10% oleic acid, albumin, dextrose, catalase (OADC, Becton Dickinson) and 0.05% Tween 80 (Sigma Aldrich) and was dispensed into a 96-well plate. The compounds were treated so that DMSO was 1%, and after 3 days, a 0.025% resazurin (REMA) solution was dispensed, and the growth of the bacteria was confirmed after culturing. The MIC value was measured for the antibacterial activity through resazurin (excitation 530 nm, emission 590 nm).

S. aureus^MS [1] = test: MIC by broth microdilution (aerobic pathogens), test strain 1; assay type: cell-based; conditions: Staphylococcus aureus; test strain 1, S. aureus^MS; read-out: MIC
How it was run: as §1

M. abscessus = test: MIC by resazurin (REMA) assay against Mycobacterium, test strain 23; assay type: cell-based; conditions: Mycobacteroides abscessus; test strain 23, M. abscessus, resazurin; read-out: MIC
Procedure: as §2

E. faecalis^LinR = test: MIC by broth microdilution (aerobic pathogens), test strain 9; assay type: cell-based, Linezolid resistant Enterococcus faecalis; conditions: Enterococcus faecalis; test strain 9, E. faecalis^LinR (linezolid resistant); read-out: MIC
How it was run: as §1

S. epidermis = test: MIC by broth microdilution (aerobic pathogens), test strain 5; assay type: cell-based; conditions: Staphylococcus epidermidis; test strain 5, S. epidermis; read-out: MIC
How it was run: as §1

M. intracelluare = test: MIC by resazurin (REMA) assay against Mycobacterium, test strain 22; assay type: cell-based; conditions: Mycobacterium intracellulare; test strain 22, M. intracelluare, resazurin; read-out: MIC
Procedure: as §2

C. difficile 152 = test: MIC by agar dilution against Clostridioides difficile, test strain 14; assay type: cell-based; conditions: test strain 14, C. difficile 152, anaerobic, agar dilution, read-out: MIC
S. aureus^MS [2] = test: MIC by broth microdilution (aerobic pathogens), test strain 2; assay type: cell-based; conditions: Staphylococcus aureus; test strain 2, S. aureus^MS; read-out: MIC
How it was run: as §1

C. difficile 161 = test: MIC by agar dilution against Clostridioides difficile, test strain 16; assay type: cell-based; conditions: test strain 16, C. difficile 161, anaerobic, agar dilution, read-out: MIC
C. difficile 174 = test: MIC by agar dilution against Clostridioides difficile, test strain 18; assay type: cell-based; conditions: test strain 18, C. difficile 174, anaerobic, agar dilution, read-out: MIC
C. difficile 159 = test: MIC by agar dilution against Clostridioides difficile, test strain 15; assay type: cell-based; conditions: test strain 15, C. difficile 159, anaerobic, agar dilution, read-out: MIC
C. difficile 181 = test: MIC by agar dilution against Clostridioides difficile, test strain 19; assay type: cell-based; conditions: test strain 19, C. difficile 181, anaerobic, agar dilution, read-out: MIC
S. aureus^MR = test: MIC by broth microdilution (aerobic pathogens), test strain 3; assay type: cell-based, Methicillin resistant Staphylococcus aureus; conditions: Staphylococcus aureus; test strain 3, S. aureus^MR (methicillin resistant); read-out: MIC
Procedure: (§3) The antibacterial activity of the compounds of Examples 1 to 48 of the present invention against aerobic pathogens were evaluated by measuring the minimum concentration of the antibiotic capable of inhibiting bacterial growth by 90% compared to the growth of the non-drug treated control group. MIC was measured by the broth microdilution method based on CLSI standards [Reference: Clinical and Laboratory Standards Institute Document. (2000) Methods for Dilution Antimicrobial Susceptibility Test for Bacteria that Grow Aerobically-Fifth Edition: M7-A5. CLSI, Villanova, PA].
(§4) All 13 strains such as methicillin susceptible Staphylococcus aureus (MSSA), methicillin resistant Staphylococcus aureus (MRSA), Vancomycin resistant Staphylococcus aureus (VRSA), Staphylococcus epidermidis, methicillin resistant Staphylococcus epidermidis, Enterococcus faecalis, Vancomycin resistant Enterococcus faecalis, Enterococcus faecium, Vancomycin resistant Enterococcus faecium were used.

M. tuberculosis = test: MIC by resazurin (REMA) assay against Mycobacterium, test strain 20; assay type: cell-based
Procedure: as §2

E. faecalis^VanA = test: MIC by broth microdilution (aerobic pathogens), test strain 8; assay type: cell-based, Vancomycin resistant Enterococcus faecalis; conditions: Enterococcus faecalis; test strain 8, E. faecalis^VanA (vancomycin resistant); read-out: MIC
How it was run: as §1

S. aureus^VR = test: MIC by broth microdilution (aerobic pathogens), test strain 4; assay type: cell-based, Vancomycin resistant Staphylococcus aureus; conditions: Staphylococcus aureus; test strain 4, S. aureus^VR (vancomycin resistant); read-out: MIC
Procedure: as §3, §4

C. difficile 173 = test: MIC by agar dilution against Clostridioides difficile, test strain 17; assay type: cell-based; conditions: test strain 17, C. difficile 173, anaerobic, agar dilution, read-out: MIC
E. faecium = test: MIC by broth microdilution (aerobic pathogens), test strain 10; assay type: cell-based; conditions: Enterococcus faecium; test strain 10, E. faecium; read-out: MIC
How it was run: as §1

E. faecium^VRE = test: MIC by broth microdilution (aerobic pathogens), test strain 11; assay type: cell-based, Vancomycin resistant Enterococcus faecium; conditions: Enterococcus faecium; test strain 11, E. faecium^VRE (vancomycin resistant); read-out: MIC
Procedure: as §3, §4

C. difficile 9689 = test: MIC by agar dilution against Clostridioides difficile, test strain 13; assay type: cell-based; conditions: test strain 13, C. difficile 9689, anaerobic, agar dilution, read-out: MIC

| SMILES | MIC (E. faecalis) [µg/mL] | MIC (S. epidermis^MR) [µg/mL] | MIC (E. faecium^LinR) [µg/mL] | MIC (M. avium) [µg/mL] | MIC (S. aureus^MS [1]) [µg/mL] | MIC (M. abscessus) [µg/mL] | MIC (E. faecalis^LinR) [µg/mL] | MIC (S. epidermis) [µg/mL] | MIC (M. intracelluare) [µg/mL] | MIC (C. difficile 152) [µg/mL] | MIC (S. aureus^MS [2]) [µg/mL] | MIC (C. difficile 161) [µg/mL] | MIC (C. difficile 174) [µg/mL] | MIC (C. difficile 173) [µg/mL] | MIC (E. faecium) [µg/mL] | further results |
| --- | --- | --- | --- | --- | --- | --- | --- | --- | --- | --- | --- | --- | --- | --- | --- | --- |
| C/C=C1\NC(=O)[C@H]([C@@H](C)O)NC(=O)c2csc(n2)-c2ccc(-c3nc(-c4nc(C(=O)NC5(C(=O)NCCN6CCN(C(C)C)CC6)CC5)cs4)cs3)nc2-c2csc(n2)[C@H]([C@@H](C)O)NC(=O)c2csc(n2)[C@H](C(C)C)NC(=O)c2csc1n2 [Compound 35] | 0.5 (≈ 0.403 µM) | 0.5 (≈ 0.403 µM) | 1 (≈ 0.806 µM) | 0.109 (≈ 0.0879 µM) | 0.5 (≈ 0.403 µM) | 0.123 (≈ 0.0991 µM) | 1 (≈ 0.806 µM) | 0.25 (≈ 0.202 µM) | 0.139 (≈ 0.112 µM) |  |  |  |  |  |  |  |
| C/C=C(\NC(=O)c1csc(-c2csc(-c3ccc4c(n3)-c3csc(n3)[C@H]([C@@H](C)O)NC(=O)c3csc(n3)[C@H](C(C)C)NC(=O)c3csc(n3)/C(=C/C)NC(=O)[C@H]([C@@H](C)O)NC(=O)c3csc-4n3)n2)n1)C(=O)NCCn1c([N+](=O)[O-])cnc1C [Compound 3] | 0.0625 (≈ 0.0504 µM) | 0.125 (≈ 0.101 µM) | 0.25 (≈ 0.202 µM) |  | 0.0625 (≈ 0.0504 µM) |  | 0.125 (≈ 0.101 µM) | 0.25 (≈ 0.202 µM) |  | 1 (≈ 0.807 µM) | < 0.0625 | 0.25 (≈ 0.202 µM) | 0.25 (≈ 0.202 µM) | 0.5 (≈ 0.403 µM) | 0.125 (≈ 0.101 µM) | MIC (C. difficile 159): 1 µg/mL (≈ 0.807 µM); MIC (C. difficile 181): 0.5 µg/mL (≈ 0.403 µM); MIC (S. aureus^MR): 1 µg/mL (≈ 0.807 µM); MIC (M. tuberculosis): 0.1 µg/mL (≈ 0.0807 µM); MIC (E. faecalis^VanA): 0.125 µg/mL (≈ 0.101 µM); MIC (S. aureus^VR): 0.25 µg/mL (≈ 0.202 µM); MIC (E. faecium^VRE): 0.25 µg/mL (≈ 0.202 µM) |
| C/C=C1\NC(=O)[C@H]([C@@H](C)O)NC(=O)c2csc(n2)-c2ccc(-c3nc(-c4nc(C(=O)NC5(C(=O)NCCN6CCN(S(C)(=O)=O)CC6)CC5)cs4)cs3)nc2-c2csc(n2)[C@H]([C@@H](C)O)NC(=O)c2csc(n2)[C@H](C(C)C)NC(=O)c2csc1n2 [Compound 29] | 1 (≈ 0.783 µM) | 0.5 (≈ 0.392 µM) |  | 0.161 (≈ 0.126 µM) | 0.25 (≈ 0.196 µM) | 0.43 (≈ 0.337 µM) | 0.25 (≈ 0.196 µM) | 0.5 (≈ 0.392 µM) | 0.13 (≈ 0.102 µM) |  | 0.25 (≈ 0.196 µM) |  |  |  |  |  |
| C/C=C1\NC(=O)[C@H]([C@@H](C)O)NC(=O)c2csc(n2)-c2ccc(-c3nc(-c4nc(C(=O)NC5(C(=O)NCCCN6CCSCC6)CC5)cs4)cs3)nc2-c2csc(n2)[C@H]([C@@H](C)O)NC(=O)c2csc(n2)[C@H](C(C)C)NC(=O)c2csc1n2 [Compound 18] | 1 (≈ 0.813 µM) | 1 (≈ 0.813 µM) |  | 0.082 (≈ 0.0667 µM) | 0.25 (≈ 0.203 µM) | 0.173 (≈ 0.141 µM) | 0.5 (≈ 0.407 µM) | 0.5 (≈ 0.407 µM) | 0.127 (≈ 0.103 µM) | 0.25 (≈ 0.203 µM) | 1 (≈ 0.813 µM) | 1 (≈ 0.813 µM) | 0.25 (≈ 0.203 µM) | 1 (≈ 0.813 µM) | 1 (≈ 0.813 µM) | MIC (C. difficile 9689): 0.5 µg/mL (≈ 0.407 µM) |
